# Patent US9446039B2, “Aminoheteroaryl compounds as MTH1 inhibitors” (CEMM—FORSCHUNGSZENTRUM FÜR MOLEKULARE MEDIZIN GMBH, priority 2012, dated 2016)
# What was measured:
# Type in all cases: binding
# [1] = biological target: T1, SW480 colon carcinoma cells lysate proteins (Homo sapiens, UniProt Q9Y2B0); conditions: PreyGene CNPY2; SW480 cells
# T1 sequence (Q9Y2B0 21-182): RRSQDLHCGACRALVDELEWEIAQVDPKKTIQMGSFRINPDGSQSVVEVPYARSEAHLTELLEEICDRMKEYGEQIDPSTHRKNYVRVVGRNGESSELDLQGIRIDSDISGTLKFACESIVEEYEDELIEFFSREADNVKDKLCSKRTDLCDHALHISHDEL
# [2] = biological target: T2, SW480 colon carcinoma cells lysate proteins (Homo sapiens, UniProt Q16181); conditions: PreyGene 07-Sep
# T2 sequence (Q16181 1-437): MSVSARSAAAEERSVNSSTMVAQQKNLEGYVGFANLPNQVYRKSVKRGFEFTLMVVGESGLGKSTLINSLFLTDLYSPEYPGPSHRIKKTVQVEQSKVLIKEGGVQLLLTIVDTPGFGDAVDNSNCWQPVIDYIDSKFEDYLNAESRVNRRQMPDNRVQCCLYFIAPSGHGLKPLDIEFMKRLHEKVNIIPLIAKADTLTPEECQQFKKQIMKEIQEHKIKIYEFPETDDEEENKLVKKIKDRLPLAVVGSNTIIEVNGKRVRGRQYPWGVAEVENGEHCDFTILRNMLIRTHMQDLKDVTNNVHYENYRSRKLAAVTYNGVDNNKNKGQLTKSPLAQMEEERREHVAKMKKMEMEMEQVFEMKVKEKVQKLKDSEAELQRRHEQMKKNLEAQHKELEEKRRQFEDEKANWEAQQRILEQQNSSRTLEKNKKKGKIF
# [3] = biological target: T3, SW480 colon carcinoma cells lysate proteins (Homo sapiens, UniProt P41250); conditions: PreyGene GARS
# T3 sequence (P41250 37-739): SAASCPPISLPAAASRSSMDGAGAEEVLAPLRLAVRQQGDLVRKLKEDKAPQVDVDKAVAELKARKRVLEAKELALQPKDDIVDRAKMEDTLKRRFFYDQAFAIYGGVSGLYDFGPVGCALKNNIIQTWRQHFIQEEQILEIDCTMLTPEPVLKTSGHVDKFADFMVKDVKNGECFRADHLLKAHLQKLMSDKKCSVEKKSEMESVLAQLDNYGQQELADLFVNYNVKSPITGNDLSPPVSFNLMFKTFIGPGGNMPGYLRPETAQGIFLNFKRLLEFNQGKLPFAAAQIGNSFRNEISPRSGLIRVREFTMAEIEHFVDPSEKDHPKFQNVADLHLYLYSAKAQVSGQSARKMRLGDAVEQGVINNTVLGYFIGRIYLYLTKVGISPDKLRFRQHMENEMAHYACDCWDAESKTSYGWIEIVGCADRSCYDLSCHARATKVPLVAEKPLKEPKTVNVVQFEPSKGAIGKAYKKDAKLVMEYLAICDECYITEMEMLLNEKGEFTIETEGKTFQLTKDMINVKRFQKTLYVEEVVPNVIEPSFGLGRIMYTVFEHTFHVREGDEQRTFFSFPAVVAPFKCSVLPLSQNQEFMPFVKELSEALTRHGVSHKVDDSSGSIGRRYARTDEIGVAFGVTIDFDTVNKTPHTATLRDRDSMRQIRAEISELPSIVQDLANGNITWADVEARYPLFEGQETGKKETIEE
# [4] = biological target: T4, SW480 colon carcinoma cells lysate proteins (Homo sapiens, UniProt Q99497); conditions: PreyGene PARK7
# T4 sequence (Q99497 1-189): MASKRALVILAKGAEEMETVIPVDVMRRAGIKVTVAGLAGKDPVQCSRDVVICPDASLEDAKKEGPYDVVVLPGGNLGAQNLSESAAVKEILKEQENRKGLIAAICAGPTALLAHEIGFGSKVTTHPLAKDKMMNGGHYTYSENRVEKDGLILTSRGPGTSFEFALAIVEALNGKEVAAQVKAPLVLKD
# [5] = biological target: T5, SW480 colon carcinoma cells lysate proteins (Homo sapiens, UniProt P53618); conditions: PreyGene COPB1
# T5 sequence (P53618 1-953): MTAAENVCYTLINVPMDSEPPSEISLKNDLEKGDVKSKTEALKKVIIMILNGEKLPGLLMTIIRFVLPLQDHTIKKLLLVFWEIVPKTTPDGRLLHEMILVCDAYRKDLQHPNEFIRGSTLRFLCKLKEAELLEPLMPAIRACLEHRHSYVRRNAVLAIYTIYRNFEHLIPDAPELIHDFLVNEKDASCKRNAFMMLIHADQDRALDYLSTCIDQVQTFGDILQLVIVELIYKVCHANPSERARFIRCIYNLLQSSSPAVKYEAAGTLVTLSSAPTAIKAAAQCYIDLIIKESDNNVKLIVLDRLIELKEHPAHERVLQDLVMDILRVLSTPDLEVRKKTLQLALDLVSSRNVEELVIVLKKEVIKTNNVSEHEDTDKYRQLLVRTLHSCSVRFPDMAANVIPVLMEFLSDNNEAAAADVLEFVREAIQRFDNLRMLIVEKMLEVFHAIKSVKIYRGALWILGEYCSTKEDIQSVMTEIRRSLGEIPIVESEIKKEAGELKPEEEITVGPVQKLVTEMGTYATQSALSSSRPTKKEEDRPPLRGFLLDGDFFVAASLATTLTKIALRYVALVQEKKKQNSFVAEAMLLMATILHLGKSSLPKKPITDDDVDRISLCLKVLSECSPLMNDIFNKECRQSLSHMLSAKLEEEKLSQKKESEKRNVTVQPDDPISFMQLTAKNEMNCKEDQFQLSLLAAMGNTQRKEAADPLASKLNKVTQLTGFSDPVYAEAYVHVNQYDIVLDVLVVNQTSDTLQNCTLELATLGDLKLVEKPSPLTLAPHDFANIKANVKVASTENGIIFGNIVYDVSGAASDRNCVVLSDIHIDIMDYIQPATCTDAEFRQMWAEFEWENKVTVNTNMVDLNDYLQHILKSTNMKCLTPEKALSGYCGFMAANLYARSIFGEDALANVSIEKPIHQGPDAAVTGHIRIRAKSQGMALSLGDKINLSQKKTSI
smiles,measurement,setting,value
C[C@H](Oc1cc(-c2cnn(C3CCNCC3)c2)cnc1N)c1c(Cl)ccc(F)c1Cl [(5)-crizotinib],AvgP,[1],0
same,SC.Exp. 1-1,[1],1
same,SC.Exp. 1-2,[1],0
same,SC.Exp. 2-1,[1],0
same,SC.Exp. 2-2,[1],0
same,SC.Exp. Sum,[1],1
same,AvgP,[2],0.2962
same,SC.Exp. 1-1,[2],3
same,SC.Exp. 1-2,[2],3
same,SC.Exp. 2-1,[2],0
same,SC.Exp. 2-2,[2],0
same,Sum (SC.Exp.),[2],6
same,AvgP,[3],0.4818
same,SC.Exp. 1-1,[3],6
same,SC.Exp. 1-2,[3],7
same,SC.Exp. 2-1,[3],0
same,SC.Exp. 2-2,[3],0
same,Sum (SC.Exp.),[3],13
same,AvgP,[4],0.4547
same,SC.Exp. 1-1,[4],6
same,SC.Exp. 1-2,[4],7
same,SC.Exp. 2-1,[4],0
same,SC.Exp. 2-2,[4],0
same,Sum (SC.Exp.),[4],13
same,AvgP,[5],0.2093
same,SC.Exp. 1-1,[5],1
same,SC.Exp. 1-2,[5],3
same,SC.Exp. 2-1,[5],0
same,SC.Exp. 2-2,[5],0
same,Sum (SC.Exp.),[5],4
